Structures are written as SMILES. In brackets after ≈: the same amount, converted by molar mass. Some results are limits rather than exact numbers.

The test system of one experiment is HeLa. Put plainly: Cytotoxicity against human HeLa cells. The format is functional, cell-based.
Experiment [1] has as its system Human immunodeficiency virus 1. Put plainly: Antiviral activity against HIV-1 assessed as inhibition of virus-induced syncytia formation. The format is functional.
Experiment [2] concerns Plasmodium falciparum. Put plainly: Antimalarial activity against Plasmodium falciparum D6. The format is functional.
The subject of a further experiment is Staphylococcus aureus. Put plainly: Antibacterial activity against Staphylococcus aureus. The format is functional.
Experiment [3] deals with Staphylococcus haemolyticus. Put plainly: Antibacterial activity against Staphylococcus haemolyticus. It is filed as functional.
Another experiment has as its system Bacillus subtilis. Put plainly: Antibacterial activity against Bacillus subtilis. It is filed as functional.
The test system of the next experiment is Enterococcus faecalis. Put plainly: Antibacterial activity against Enterococcus faecalis. The format is functional.
A further experiment deals with Enterococcus faecium. Put plainly: Antibacterial activity against Enterococcus faecium. The format is functional.
A further experiment relates to Streptococcus pyogenes. Put plainly: Antibacterial activity against Streptococcus pyogenes. It is filed as functional.
Another experiment has as its system Human alphaherpesvirus 1. Put plainly: Antiviral activity against Herpes simplex virus type 1 by plaque reduction assay. As to conditions: read-out: ID50 (the source's name). It is filed as functional.
The next experiment concerns Human alphaherpesvirus 2. Put plainly: Antiviral activity against Herpes simplex virus type 2 by plaque reduction assay. The format is functional. As to conditions: read-out: ID50 (the source's name).
Experiment [4] addresses Protein kinase C alpha type (Homo sapiens) (UniProt P17252). Put plainly: Inhibition of PKCalpha (unknown origin).
Experiment [5] addresses Protein kinase C beta type (Homo sapiens) (UniProt P05771). Put plainly: Inhibition of PKCbeta (unknown origin).
The subject of another experiment is HL-60. Put plainly: Cytotoxicity against human HL60 cells assessed as reduction in cell viability after 72 hrs by MTT assay. It is filed as functional, cell-based. As to conditions: HL-60, 72 h.
Another experiment has as its system K562. Put plainly: Cytotoxicity against human K562 cells assessed as reduction in cell viability after 72 hrs by MTT assay. The format is functional, cell-based. As to conditions: K562, 72 h.
Experiment [6] deals with Plasmodium falciparum. Put plainly: Antiplasmodial activity against chloroquine-resistant Plasmodium falciparum K1 after 24 hrs by liquid scintillation counting analysis. The format is functional. As to conditions: K1, 24 h.
Experiment [7] relates to Plasmodium falciparum. Put plainly: Antiplasmodial activity against chloroquine-resistant Plasmodium falciparum W2 after 24 hrs by liquid scintillation counting analysis. It is filed as functional. The following applies: W2, 24 h.
Experiment [8] has as its system P388. Put plainly: Cytotoxicity against mouse P388 cells. The format is functional, cell-based.
A further experiment deals with KB. Put plainly: Cytotoxicity against human KB cells. The format is functional, cell-based.
In a further experiment the test system is HT-29. Put plainly: Cytotoxicity against human HT-29 cells. The format is functional, cell-based.
A short description of experiment [9]: Cytotoxicity against human NSCLC-N6 cells. It is filed as functional, cell-based.
Experiment [10] relates to P388. Put plainly: Cytotoxicity against mouse doxorubicin-resistant P388 cells. The format is functional, cell-based.
Another experiment has as its system A549. Put plainly: Cytotoxicity against human A549 cells. The format is functional, cell-based.
A further experiment deals with HCT-8. Put plainly: Cytotoxicity against human HCT8 cells. The format is functional, cell-based.
Experiment [11] is described as follows: Cytotoxicity against human MDA-MB cells. The format is functional, cell-based.
A further experiment deals with Mycobacterium. Put plainly: Antibacterial activity against Mycobacterium. It is filed as functional.
The subject of the next experiment is Rattus norvegicus. Put plainly: Antiinflammatory activity in rat assessed as inhibition of carrageenan-induced paw edema at 50 mg/kg, po administered 1 hr prior to carrageenan challenge measured 4 hrs post dose. The format is functional.
Experiment [12] in a line: Inhibition of HDAC (unknown origin). Set-up: species or system Homo sapiens.
The test system of a further experiment is Helicobacter pylori. Put plainly: Antibacterial activity against Helicobacter pylori. The format is functional.
For experiment [13], the system named is Plasmodium falciparum. Put plainly: Antiplasmodial activity against chloroquine-resistant Plasmodium falciparum W2 infected in human erythrocytes after 72 hrs by giemsa staining based microscopic analysis. The format is functional, cell-based. The following applies: W2, 72 h.

Protein kinase C beta type (Homo sapiens), sequence (P05771 2-671 limits assumed): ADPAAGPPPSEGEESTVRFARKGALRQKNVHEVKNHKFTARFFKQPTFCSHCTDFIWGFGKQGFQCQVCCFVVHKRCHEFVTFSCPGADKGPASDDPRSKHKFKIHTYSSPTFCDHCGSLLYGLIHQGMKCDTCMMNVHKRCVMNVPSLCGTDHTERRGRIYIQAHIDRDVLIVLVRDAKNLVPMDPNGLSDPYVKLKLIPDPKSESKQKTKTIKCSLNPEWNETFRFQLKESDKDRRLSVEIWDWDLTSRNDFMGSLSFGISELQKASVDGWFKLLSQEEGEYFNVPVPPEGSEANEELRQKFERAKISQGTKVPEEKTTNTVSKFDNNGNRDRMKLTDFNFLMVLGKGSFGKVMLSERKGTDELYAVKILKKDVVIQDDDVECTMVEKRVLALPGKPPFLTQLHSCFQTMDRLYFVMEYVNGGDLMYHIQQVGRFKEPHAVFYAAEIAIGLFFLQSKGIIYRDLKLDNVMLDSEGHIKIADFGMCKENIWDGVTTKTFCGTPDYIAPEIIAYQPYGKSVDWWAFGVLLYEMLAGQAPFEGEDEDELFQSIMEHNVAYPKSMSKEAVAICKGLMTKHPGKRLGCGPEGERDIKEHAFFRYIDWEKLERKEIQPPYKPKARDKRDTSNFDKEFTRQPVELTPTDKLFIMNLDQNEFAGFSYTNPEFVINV

`COC(=O)[C@@]1(C)NC2=C(C1=O)[C@@]13C[C@H]1CN(C(=O)c1cc4cc(OC)c(OC)c(OC)c4[nH]1)C3=CC2=O` yielded an IC50 in the experiment with HeLa of 0.001 to 1 nM.

Take `COc1ccc2c(c1)N=CN1CCc3c([nH]c4ccccc34)C3=NCC[C@@]321`: in experiment [1], the EC50 came out at 0.95 µg/mL (≈ 2.67 µM).

Regarding `[O-][n+]1ccc2c([nH]c3ccccc32)c1C1=C[C@@]2(O)CC/C=C\CCCCN3CC[C@@H]1[C@]1(C[C@@H]4/C=C\CCCCN4[C@H]12)C3`, in the experiment with Plasmodium falciparum [2], the minimum inhibitory concentration (MIC) worked out at 11 µg/mL (≈ 19.5 µM).

Regarding `CN[C@@H](CC(C)C)C(=O)NCCc1c(Br)n(C)c2cc(Br)c(Br)cc12` [ALTEMATAMIDE A], the minimal inhibitory concentration (MIC) (in the experiment on Staphylococcus aureus; in experiment [3]; with Bacillus subtilis; in the experiment on Enterococcus faecalis; against Enterococcus faecium; in the experiment with Streptococcus pyogenes) was 4 to 32 µg/mL (≈ 7.43 to 59.5 µM) each time.

Take `CC(C)CC(=O)[C@@H](O)Cc1c[nH]c2ccccc12`: the IC50 with Human alphaherpesvirus 1 and in the experiment with Human alphaherpesvirus 2 was 1500 µg/mL (≈ 6110 µM) each time.

Regarding `N#CCCn1c2ccccc2c2c3c(c4c5ccccc5[nH]c4c21)C(=O)NC3`, the INH is 2.3 nM in [4] and 6.2 nM in experiment [5].

In the case of `CN[C@@H](CC(C)C)C(=O)NCCc1c(Br)[nH]c2cc(Br)c(Br)cc12` [ALTEMATAMIDE B], the MIC (in the experiment on Staphylococcus aureus; in experiment [3]; with Bacillus subtilis; against Enterococcus faecalis; in the experiment on Enterococcus faecium; with Streptococcus pyogenes) was 4 to 32 µg/mL (≈ 7.63 to 61.1 µM) in each case.

`CC(C)=CCc1cccc2c1N[C@@H]1N3C(=O)[C@H](Cc4c[nH]c5c(CC=C(C)C)cccc45)NC(=O)[C@@H]3C[C@]21O`: the IC50 with HL-60 turned out to be 780 nM; with K562, 22400 nM.

`Cn1c2nc3ccccc3c-2cc2ccccc21` [NEOCRYPTOLEPINE]: the IC50 in the experiment with Plasmodium falciparum [6] and in the experiment with Plasmodium falciparum [7] was 0.027 to 0.063 µg/mL (≈ 0.116 to 0.271 µM) throughout.

Turning to `NCCc1c(C(CN)c2c[nH]c3cc(Br)ccc23)[nH]c2cc(C(CN)c3c[nH]c4cc(Br)ccc34)c(O)cc12` (stereo not drawn) [GELLIUSINE A], the IC50 (in the experiment with P388 [8]; in the experiment with KB; in the experiment with HT-29; in [9]; in the experiment on P388 [10]) was 10 to 20 µg/mL (≈ 15.4 to 30.7 µM) throughout.

On to `CN1C[C@H](c2c[nH]c3c(Br)c(Br)cc(O)c23)NC[C@H]1c1c[nH]c2cc(Br)ccc12`, for which the IC50 with P388 [8] was 15 µg/mL (≈ 25.7 µM); in the experiment on A549, 1 to 10 µg/mL (≈ 1.71 to 17.1 µM); in the experiment on HCT-8, 1 to 10 µg/mL (≈ 1.71 to 17.1 µM); in experiment [11], 1 to 10 µg/mL (≈ 1.71 to 17.1 µM).

For `COC(=O)[C@@]1(C)Nc2c(O)cc3c(c2C1=O)[C@@H](CBr)CN3C(=O)c1cc2cc(OC)c(OC)c(OC)c2[nH]1`, the IC50 in the experiment with HeLa lay in the range of 0.001 to 1 nM.

Turning to `O=c1ccc2nccc3c4cccc(O)c4n1c23`, the minimum inhibitory concentration (MIC) in the experiment with Staphylococcus aureus is 8 to 64 µg/mL (≈ 33.9 to 271 µM); against Mycobacterium, 2 to 32 µg/mL (≈ 8.47 to 135 µM).

As for `O[C@]12C=C(c3nccc4c3[nH]c3ccccc34)[C@@H]3CCN(CCCC/C=C\CC1)C[C@@]31C[C@@H]3/C=C\CCCCN3[C@H]12` [MANZAMINE A], the minimum inhibitory concentration (MIC) in the experiment with Plasmodium falciparum [2] is 4.5 µg/mL (≈ 8.2 µM).

In the case of `O=C(O)c1ccc(C(=O)N/N=C/c2c(-c3cccs3)[nH]c3ccccc23)cc1`, the inhibition in vivo at 50 mg/kg in the experiment with Rattus norvegicus came out at 55.3%.

As to `C[n+]1c2ccccc2cc2[n-]c3ccccc3c21.Cl` [CRYPTOLEPINE HYDROCHLORIDE], the IC50 in the experiment with Plasmodium falciparum [6] and with Plasmodium falciparum [7] was 0.027 to 0.063 µg/mL in each case.

`O=C(/C=C/c1ccc(CN(CCO)CCc2c[nH]c3ccccc23)cc1)NO` [DACINOSTAT]: the IC50 in experiment [12] was 32 nM.

For the compound `C[n+]1c2ccccc2cc2[n-]c3ccccc3c21` [CRYPTOLEPINE], the IC50 in the experiment with Plasmodium falciparum [6] and in the experiment with Plasmodium falciparum [7] was 0.027 to 0.063 µg/mL (≈ 0.116 to 0.271 µM) throughout.

For the compound `Oc1cccc2c1[nH]c1c(C3=C[C@@]4(O)CC/C=C\CCCCN5CC[C@@H]3[C@@]3(C[C@@H]6/C=C\CCCCN6[C@H]34)C5)nccc12`, the MIC against Plasmodium falciparum [2] worked out at 6 µg/mL (≈ 10.6 µM).

Regarding `CNC1=NC(=O)[C@H]([C@H](C)c2c[nH]c3ccccc23)O1` [INDOMYCIN], the minimum inhibitory concentration (MIC) in the experiment with Staphylococcus aureus was determined as 0.5 µg/mL (≈ 1.94 µM); with Helicobacter pylori it was 0.016 µg/mL (≈ 0.0622 µM).

Consider `O=c1ccc2nccc3c4ccccc4n1c23` [CANTHIN-6-ONE], for which the MIC against Staphylococcus aureus fell in the range of 8 to 64 µg/mL (≈ 36.3 to 291 µM); with Mycobacterium, 2 to 32 µg/mL (≈ 9.08 to 145 µM).

Compound `COC(=O)[C@@]1(C)Nc2c(O)cc3c(c2C1=O)C[C@@H](Br)CN3C(=O)c1cc2cc(OC)c(OC)c(OC)c2[nH]1` displayed an IC50 in the experiment with HeLa of 0.001 to 1 nM.

In the case of `Cn1c2c3ccccc3nc-2c(O)c2ccccc21` [HYDROXYCRYPTOLEPINE], the IC50 in the experiment on Plasmodium falciparum [6] and with Plasmodium falciparum [7] was 0.027 to 0.063 µg/mL (≈ 0.109 to 0.254 µM) throughout.

The compound `CN1C(=N)N(C)/C(=C/c2c[nH]c3cc(Br)ccc23)C1=O` yielded an MIC against Plasmodium falciparum [2] of 0.34 µg/mL (≈ 1.02 µM).

For `C=C1c2[nH]c3ccccc3c2C2C(CC)C1CCN2C` (stereo not drawn), the IC50 in the experiment with Plasmodium falciparum [13] is below 1 µg/mL.

In the case of `CN[C@@H](CC(C)C)C(=O)NCCc1c(Br)[nH]c2ccc(Br)cc12` [ALTEMATAMIDE C], the MIC (in the experiment on Staphylococcus aureus; in [3]; against Bacillus subtilis; against Enterococcus faecalis; against Enterococcus faecium; against Streptococcus pyogenes) was 4 to 32 µg/mL (≈ 8.98 to 71.9 µM) throughout.

The values above are taken from ChEMBL document CHEMBL4020723, “Indoles as therapeutics of interest in medicinal chemistry: Bird's eye view” (Eur J Med Chem, 2017).
